Here are results for seven substances from US5064817A, “Phospholipase A2 inhibiting compositions and their use” (Yissum Research Development Company of Hebrew University of …, priority 1987, dated 1991).

Where “and” joins values, the source holds several entries; their conditions need not be identical. Equal values may be shown once. A value given as a limit tells only on which side of the number the result lay.

In data set [1] the test system is human platelet aggregation. Put plainly: Inhibition of human platelet aggregation in platelet-rich plasma. It counts as cell-based. As to conditions: human PRP. How it is done: (§1) Platelet-rich plasma (PRP) was obtained from human donors by centrifugation. Platelet aggregation at 37° C. and TXB2 secretion were induced by the addition of an aggregating agent (inducer) as indicated in the table below. Platelet aggregation was determined by measurement of the suspension optical density in a double beam aggregometer. Results are expressed as % of the control aggregation obtained by the addition of the inducer in the absence of an inhibitor. TXB2, secretion to the extracellular medium, was determined by radioimmunoassay. When the test PLI was applied, the PRP was incubated with the inhibitor for 10 min at 37° C., prior to induction of aggregation.

Data set [2] relates to crude phospholipase A2 (extracted from human polymorphonuclear leukocytes). The data set is described as follows: Inhibition of phospholipase A2 from human PMN leukocytes (14C-oleate-labelled E. coli substrate). It counts as biochemical. As to conditions: 37°, 60 min, pH 7.0, 0.5 mmol/l CaCl2. The procedure: The reaction is stopped by extraction with modified Dole reagent. Free oleic acid is separated on a disposable silicic acid (Kieselgel G 100) column and the radioactivity is determined. Percent inhibition is calculated after subtracting a blank (assay mixture without enzyme).

Data set [3] concerns PLA2-oedema (purified phospholipase A2 from porcine pancreas, subplantar). Put plainly: Inhibition of PLA2-oedema in rats (paw plethysmometry). The data set is classed as in vivo. As to conditions: rat. How it is done:
By subplantar injection of 200 U PLA2 (ca. 0.3 mg purified phospholipase A2 from porcine pancreas, Boehringer Mannheim) in 100 μl physiological saline into the left hind paw of male or female rats (LEW/TIF, ca. 200 g body weight, 5 animals per group) a localized edema was induced and its intensity was determined plethysmometrically 3 and 5 hours later. Test compounds were suspended in 0.75% methylcellulose and administered i.p. (5 ml/kg) 1 hour prior to the PLA2 injection. The edema-inhibiting effect was expressed as percent inhibition in comparison to vehicle-treated controls.

Data set [4] concerns Prostaglandin (PGE2) production in mouse peritoneal macrophages. The data set is described as follows: Inhibition of PGE2 production in mouse peritoneal macrophages. The settings on record: 10^-5 M phorbol-myristate-acetate, 2 hours, repeated lines per PLI type. The data set is classed as cell-based. How it is done:
Peritoneal cells from NMRI mice were obtained by lavage with Dulbeccos MEM. The cells were washed and plated at 2×10^4 /well in Dulbeccos MEM with FCS in 96-well plates. After 2 hours (or overnight) incubation at 37°, the adherent macrophages were washed 3 times. The medium was replaced by Dulbeccos MEM with lactalbumin hydrolysate. Test compounds were suspended in water. One hour later, the macrophages were stimulated with 10^-5 M phorbol-myristate-acetate. Another 2 hours later, PGE2 and LTC4 were measured int he supernatants by radioimmunoassay. The results are expressed as IC50 of PGE2 - and LTC4 -production.

Data set [5] deals with Serotonin secretion in Rat Basophilic Leukemia (RBL) cells. The data set is described as follows: Inhibition of serotonin secretion in RBL cells. As to conditions: HMS 1.5 mg/ml, ionophore A23187 0.3 μM. It counts as cell-based. How it is done: Cultured RBL were incubated with tritiated serotonin (10^7 DPM/ml/10^6 cell) for 2 hours, then washed. Serotinin secretion was activated in the absence or presence of HMS (1.5 mg/ml) by the addition of the ionophore A23187 (0.3 μM) for the desired time. The radioactive serotonin accumulated in the culture medium during the activation period was determined. In the absence of HMS, approximately 1.3 and 1.9 DPM×10^5 was excreted in 15 and 30 minutes, respectively, whereas in the presence of the HMS, only about 0.3 DPM×10^5 was secreted in each of these time periods.

For data set [6], the system named is Phospholipase A2 (PLA2) activity in Rat Basophilic Leukemia (RBL) cells. The data set is described as follows: Inhibition of PLA2 activity in RBL cells (C6-NBD-PC hydrolysis). It counts as cell-based. How it is done: Cultured RBL cells were incubated with the fluorescent substrate of PLA2 (C6 -NBD-PC) as described by Yedgar et al. (1986) FEBS Letters, 200:165-168. After 1 hour of incubation, the cultures were subjected to lipid extraction and determination of C6 -NBD-PC hydrolysed as previously described.

The test system of data set [7] is adjuvant arthritis (Freunds adjuvant paw swelling). Put plainly: Adjuvant arthritis model of inflammation. It counts as in vivo, rat. As to conditions: for gross signs of toxicity: 70 mg/kg subcutaneously, two week dosing period; for paw diameter (measured with calipers): arthritic animals, by day 14; for paw diameter (measured with calipers) / decrease in paw swelling, injected paw / decrease in paw swelling, noninjected paw: 70 mg/kg subcutaneously day 3 to day 14; for decrease in paw swelling, injected paw / decrease in paw swelling, noninjected paw: arthritic rats, day 14. The procedure:
Two compounds (CMS and HMS) were tested in the adjuvant arthritis model of inflammation. Paw swelling is induced by an injection of Freunds adjuvant into the right hind paw. Systemic inflammation spreads to the controlateral paw within 2 weeks. The compounds were administered subcutaneously from day 3 to day 14 at a dose of 70 mg/kg. […] CMS decreased noninjected paw swelling 51% (P≤0.005) and injected paw swelling 30% (P≤0.001). […] No drug treated group lost weight compared to the arthritic controls.

The test system of data set [8] is prostacyclin (6-keto-PGF1 α) production in cultured adrenal capillary endothelial cells. The data set is described as follows: Inhibition of prostacyclin production in endothelial cells. It counts as cell-based. As to conditions: for % Inhibition of prostacyclin production: PLI 1 mg/ml + Bradykinin 1 μM; for 6-keto-PFG1α PROD.: PLI 1 mg/ml + Bradykinin 1 μM (Bradykinin alone 201.9 ± 21.6). How it is done:
Method: Cultured adrenal capillary endothelial cells were stimulated to produce prostacyclin (6-keto-PGF1 α) by bradykinin in the absence and presence of CMS or HME. The prostacyclin, secreted to the culture medium was determined by radioimmunoassay.

The subject of data set [9] is Thromboxane (TXB2) secretion by human platelets. Put plainly: Inhibition of thromboxane (TXB2) secretion by human platelets. It counts as cell-based. As to conditions: human PRP. How it is done: as §1
[10] abbreviates: Epinephrine 0.8 μg/ml, PLI 1.5 mg/ml.
The mark [11] stands for this setting: 100 mg/kg i.p., 1 hour prior to PLA2.
Setting [12] is: 1 × 20 mg/kg i.p., 1 hour prior to PLA2.
Where [13] appears, read: line (e), 1 × i.p., dose not given.

Regarding “carboxymethylcellulose phosphatidylethanolamine [CME]”, the “Aggregation (% of control)” value in data set [1] (setting [10]) is reported as 0 % of control.
Consider “alginic acid phosphatidylethanolamine [ALE]”, for which the “Aggregation (% of control)” value in data set [1] (Epinephrine 0.8 μg/ml, PLI 0.7 mg/ml) is reported as 9 % of control.
Take Hemaccellphosphatidylserine [HMS]: the “Inhibition of PLA2 from human PMN, IC50” value in [2] stood at 57 µg/mL. Besides, in data set [3] (setting [11]), the “% Inhibition of PLA2-oedema, 3 hours” value is given as 63% and the “% Inhibition of PLA2-oedema, 5 hours” value was 80%. In [3] (setting [12]), the “% Inhibition of PLA2-oedema, 3 hours” value is recorded as 36% and the “% Inhibition of PLA2-oedema, 5 hours” value came to 62%. For the same substance, the “IC50 for PGE2 production” value in data set [4] was over 100 µg/mL. For the same substance, the “radioactive serotonin secreted to culture medium” value in data set [5] (15 minutes (without HMS approx. 1.3)) is “about 0.3 DPM×10^5”. The “radioactive serotonin secreted to culture medium” value in data set [5] (30 minutes (without HMS approx. 1.9)) is given as “about 0.3 DPM×10^5”. The C6-NBD-PC hydrolysed in [6] (HMS 0.5 mg/ml (control 1.42 ± 0.19)) is reported as 0.37 ± 0.04 nmole/mg cell protein-hour. For the same substance, the C6-NBD-PC hydrolysed in data set [6] (HMS 1.5 mg/ml (control 1.42 ± 0.19)) is 0.11 ± 0.07 nmole/mg cell protein-hour. In addition, the “Aggregation (% of control)” value in data set [1] (Epinephrine 0.8 μg/ml, PLI 1.2 mg/ml) is 2 % of control. For the same substance, in data set [7], the “gross signs of toxicity” value is given as “no gross signs of toxicity”; the “paw diameter (measured with calipers)” value is “significantly decreased”; the “decrease in paw swelling, injected paw” value came to 19%; the “decrease in paw swelling, noninjected paw” value is listed as 43%.
As to “carboxymethylcellulosephosphatidylserine [CMS]”, in data set [2], the “Inhibition of PLA2 from human PMN, IC50” value was 40 µg/mL. Besides, in data set [3] (setting [11]), the “% Inhibition of PLA2-oedema, 3 hours” value is given as 51% and the “% Inhibition of PLA2-oedema, 5 hours” value was found to be 54%. In data set [3] (setting [12]), the “% Inhibition of PLA2-oedema, 3 hours” value amounted to 15% and the “% Inhibition of PLA2-oedema, 5 hours” value came out at 29%. Besides, in data set [4], the “IC50 for PGE2 production” value was 100 µg/mL and > 100 µg/mL. Further, the “Aggregation (% of control)” value in data set [1] (setting [10]) is listed as 0 % of control. For the same substance, in data set [8], the “% Inhibition of prostacyclin production” value came out at 61% and the “6-keto-PFG1α PROD.” value was 78.7 ± 6.8 PG/10^-6 Cells. Besides, in [7], the “gross signs of toxicity” value is reported as “no gross signs of toxicity”; the “paw diameter (measured with calipers)” value is given as “significantly decreased”; the “decrease in paw swelling, injected paw” value is listed as 30%; the “decrease in paw swelling, noninjected paw” value is 51%.
With “Dextranhydrazide-dodecanedioic-phosphatidylserine [Dex-Ac-PS, reference compound]”, in [2], the “Inhibition of PLA2 from human PMN, IC50” value is 720 µg/mL. For the same substance, the “IC50 for PGE2 production” value in [4] is 300 µg/mL and 600 µg/mL. In addition, the “Aggregation (% of control)” value in data set [1] (ADP 2 μg/ml, PLI 3.0 mg/ml) is reported as 14 % of control; in data set [1] (Epinephrine 0.8 μg/ml, PLI 6.5 mg/ml) it was 19 % of control.
As to alginic acid phosphatidylserine [ALS], in data set [1] (setting [10]), the “Aggregation (% of control)” value is 5 % of control.
Hemaccellphosphatidylethanolamine [HME]: the “% Inhibition of PLA2-oedema, 3 hours” value in data set [3] (setting [13]) was 0%; in [3] (line (f), i.p., dose not given) it was 27%; in data set [3] (line (g), i.p., dose not given), 53%. Besides, the “% Inhibition of PLA2-oedema, 5 hours” value in [3] (setting [13]) came to 0%; in data set [3] (line (f), i.p., dose not given), 25%; in data set [3] (line (g), i.p., dose not given), 45%. For the same substance, the “Aggregation (% of control)” value is 6 % of control in data set [1] (ADP 2 μg/ml, PLI 0.70 mg/ml); 13 % of control in [1] (Collagen 40 μg/ml, PLI 0.85 mg/ml); 9 % of control in [1] (Epinephrine 0.8 μg/ml, PLI 0.75 mg/ml). Further, the TXB2 secreted was 14 ± 7 ng/mL in [9] (ADP 2 μg/ml, PLI 0.70 mg/ml (without PLI 82 ± 4)) and 17 ± 7 ng/mL in data set [9] (Collagen 40 μg/ml, PLI 0.85 mg/ml (without PLI 42 ± 6)). Further, the “% Inhibition of prostacyclin production” value in data set [8] is given as 82%. Further, in data set [8], the “6-keto-PFG1α PROD.” value was 36.4 ± 7.2 PG/10^-6 Cells.
